One data set concerns H460. As to the kind of experiment: Cell viability assay (sulforhodamine B). It is filed as cell-based, human. The settings on record: Homo sapiens. How it is done:
(§1) All biological reagents and solvents were obtained from commercial suppliers and used as recommended. The human NSCLC cell line H460 and P-gp-overexpressing drug-resistant cell line H460TaxR were cultured in RPMI-1640 medium supplemented with 10% fetal bovine serum, 100 units/ml penicillin and […] streptomycin. The NHFB cell line NHFB was cultured in DMEM with the same supplements. All cells were maintained in a 37 °C incubator with 95% humidity and 5% CO2.
(§2) The cell viability was determined using the sulforhodamine B assay.[64] In brief, cells (4000 cells in 100 μl medium) were seeded in 96-well culture plates and incubated for 24 h. The cells were treated with the compounds or with an equal volume (0.1%) of DMSO for 72 h. The cell viability was calculated using the following formula: cell viability=Atreatment/Acontrol. The EC50 values were determined using the Sigma Plot 10.0 software package (Systat Software Inc., San Jose, CA, USA).

For another data set, the system named is H460TaxR. In words: Cell viability assay (sulforhodamine B). It is filed as cell-based, human. The settings on record: for Resistance Folds: EC50 in H460TaxR cells divided by EC50 in H460 cells; for EC50: Homo sapiens, H460/TaxR. How it is done: as §1, §2
Data set [1] can be described thus: toxicity in xenografted mice. The settings on record: end of experiment, hematoxylin–eosin.
Description: Five injections of vehicle and TBPT (30 or 60 mg/kg) were administered intravenously at days 1, 3, 5, 7 and 9 (arrows). Four injections of PTX (10 mg/kg) were administered intravenously at days 1, 3, 5 and 7. (a) The tumor volume was measured every other day. When the tumor volume in the solvent-treated group exceeded 1500 mm^3, the experiment was terminated. (b) Blood biochemical and hematological analyses. (c) The body weights of the mice were monitored every other day during the experiments. *P<0.05, Student's t-test with day 0, N=5
Figure 3 Histopathological examination of the major organs from TBPT or PTX-treated mouse tumor at the end of the experiments. The cross-sections of organs were stained with hematoxylin–eosin. […] The scale bars represent 50 μm and are uniform in each column
H460 and H460TaxR cells (5 × 10^6 cells in 100 μl PBS) were injected subcutaneously into the dorsal flank of each mouse. When the tumors reached volumes of 100 mm^3, the mice were divided randomly into four groups. The mice were treated every other day five times with intravenous injections of (1) vehicle (the solvent of TBPT: 60% PBS, 8% Cremophor EL, 8% EtOH, 12% poly propylene glycol and 12% PEG-400), (2) TBPT (30 mg/kg) or (3) TBPT (60 mg/kg). Another group was treated with PTX (10 mg/kg) every other day four times as the positive control. The tumor dimensions and body weights were measured every other day. The tumor volume was calculated according to a standard formula: volume=width^2 × length/2. The experiment was terminated and the mice were killed when the tumor volumes in the solvent-treated group exceeded 1500 mm^3. The mouse organs and blood were collected and used for hematoxylin–eosin staining and serum chemistry assay. TGI rates were assessed using the following formula: TGI=1− (Tt−T0)/(Ct−C0) × 100%. Tt and T0 indicate the tumor volumes of the treated group at days t and 0. Ct and C0 indicate the tumor volumes of the control group at days t and 0, respectively.
The subject of the next data set is H460TaxR xenograft. In words: NSCLC xenograft tumor growth inhibition. It is filed as in vivo. The settings on record: H460TaxR xenografted mice; PTX 10 mg/kg i.v., four doses every other day. As to the method: (§3) (a) The tumor volume was measured every other day. […] (b) Blood biochemical and hematological analyses.
The next data set has as its system H460 xenograft. As to the kind of experiment: NSCLC xenograft tumor growth inhibition. The settings on record: H460 xenografted mice; PTX 10 mg/kg i.v., four doses every other day. It is filed as in vivo. How it is done:
as §3

A further data set relates to NHFB. As to the kind of experiment: Cell viability assay (sulforhodamine B). It is filed as cell-based. The following applies: Fibroblast; NHFB normal human fibroblasts, 72 h. As to the method: as §1, §2
The mark [2] stands for this setting: H460TaxR(+Rev), Reversan (P-gp inhibitor).

As a reminder, the EC50 is the midpoint of the concentration-response curve. Low values mean greater potency, high ones weaker potency.

As to `COc1cccc2c1C(=O)c1c(O)c3c(c(O)c1C2=O)C[C@@](O)(C(=O)CO)C[C@@H]3O[C@H]1C[C@H](N)[C@H](O)[C@H](C)O1` [DOX, Doxorubicin], the EC50 in the data set with H460 (NCI-H460, 72 h, H460 cells, 72 h) amounted to 110 ± 70 nM; in the data set on H460TaxR (72 h, H460TaxR cells), 2050 ± 690 nM; in the data set on H460TaxR (setting [2]) it was 170 ± 100 nM. Further, in the data set with H460TaxR, the “Resistance Folds” value came out at 18.6.

With `CC(=O)O[C@H]1C(=O)[C@@]2(C)[C@H]([C@H](OC(=O)c3ccccc3)[C@]3(O)C[C@H](OC(=O)[C@H](O)[C@@H](NC(=O)c4ccccc4)c4ccccc4)C(C)=C1C3(C)C)[C@]1(OC(C)=O)CO[C@@H]1C[C@@H]2O` [PTX, paclitaxel], the “histopathological examination of the major organs” value in data set [1] is given as “Hepatocyte necrosis”. The EC50 in the data set with H460 (NCI-H460, H460 cells) turned out to be 6 ± 2.1 nM; in the data set on H460TaxR (72 h, H460TaxR cells) it was 822 nM; in the data set with H460TaxR (H460TaxR cells) it was 990 ± 190 nM; with H460TaxR (setting [2]), 4.4 ± 2.8 nM; with NHFB it was 51 nM. Further, the “Resistance Folds” value in the data set with H460TaxR came to 165.0. For the same molecule, the “tumor growth inhibition, TGI” value turned out to be 42.0% in the data set with H460TaxR xenograft and 66.2% with H460 xenograft.

With `CC[C@]1(O)C[C@H]2CN(CCc3c([nH]c4ccccc34)[C@@](C(=O)OC)(c3cc4c(cc3OC)N(C=O)[C@H]3[C@@](O)(C(=O)OC)[C@H](OC(C)=O)[C@]5(CC)C=CCN6CC[C@]43[C@@H]65)C2)C1` [VCR, Vincristine], the EC50 in the data set on H460 (NCI-H460, H460 cells) was found to be 12.9 ± 5.2 nM; in the data set on H460TaxR (H460TaxR cells), 1010 ± 101 nM; with H460TaxR (setting [2]), 9.1 ± 3.3 nM. In the data set with H460TaxR, the “Resistance Folds” value was 78.4.

The values are drawn from article PMC4823954, “From fighting depression to conquering tumors: a novel tricyclic thiazepine compound as a tubulin polymerization inhibitor” (Cell Death & Disease, 2016).
